Here are results for two sequences from patent US9791436B2, “Protease-based biosensor” (priority 2012, dated 2017).

For experiment [1], the target named is T1, Erbin-PDZ-FN affinity clamp complex (Homo sapiens, UniProt Q96RT1).
T1 construct: made in house; host or cells: E. coli BL21(DE3)-RIL
Briefly: Induction of the TVMV-based allosteric receptor by PDZ ligands of different affinity. In kind it is biochemical. Conditions: FIG. 11C. The procedure:
The maximum induction ratio of TVMV-based allosteric receptors (500 nM) was measured in a similar fashion in the presence or absence of the PDZ ligand peptide-1 ([…]) at a final concentration of 10 μM in protease assay buffer consisting of 50 mM Tris-HCl, 1 M NaCl, 1 mM DTT and 0.5 mM EDTA, pH 8.0. The reaction was generally initiated following the addition of TVMV substrate peptide (Table 1) to a final concentration of 10 μM.
A set of different allosterically regulated proteases was constructed by varying the composition of the three different linkers connecting TVMV to the Erbin-PDZ domain (Linker 1), the Erbin-PDZ domain to the FN3 domain (Linker 2) and the FN3 domain to the AI-domain (Linker 3). […] The largest modulation was effected by progressively shortening and lengthening linker L1.

For the next experiment, the target named is ePDZ-b1. The settings on record: cited from earlier work.
Sequence of ePDZ-b1 (as listed by the source): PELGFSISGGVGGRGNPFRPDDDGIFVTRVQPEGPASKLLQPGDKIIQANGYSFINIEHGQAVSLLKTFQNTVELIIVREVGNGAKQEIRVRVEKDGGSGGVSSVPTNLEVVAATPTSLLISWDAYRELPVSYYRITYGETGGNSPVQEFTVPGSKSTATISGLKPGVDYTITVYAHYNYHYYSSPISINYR

T1 sequence (Q96RT1 with tags, fused parts or gaps limits assumed): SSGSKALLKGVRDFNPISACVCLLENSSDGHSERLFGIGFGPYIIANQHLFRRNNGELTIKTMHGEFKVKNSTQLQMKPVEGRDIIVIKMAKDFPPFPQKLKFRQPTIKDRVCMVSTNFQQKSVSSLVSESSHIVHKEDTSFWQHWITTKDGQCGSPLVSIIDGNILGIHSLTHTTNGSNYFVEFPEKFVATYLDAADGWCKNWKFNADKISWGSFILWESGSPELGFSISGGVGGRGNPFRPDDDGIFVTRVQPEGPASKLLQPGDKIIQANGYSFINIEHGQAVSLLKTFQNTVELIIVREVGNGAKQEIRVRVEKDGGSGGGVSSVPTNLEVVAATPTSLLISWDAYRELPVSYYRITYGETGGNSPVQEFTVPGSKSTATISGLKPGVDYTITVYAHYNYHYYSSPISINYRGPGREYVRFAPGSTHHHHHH

Turning to PQPVDSWV [PDZ-Ligand 2], the “induction of activity compared to the higher affinity PDZ peptide ligand-1” value in experiment [1] is given as “approximately 10 fold lower”. Also, the Kd on ePDZ-b1 was approximately 5 nM. As for RGSIDTWV [PDZ-Ligand 1], the equilibrium dissociation constant (Kd) on ePDZ-b1 was approximately 0.625 nM.
